# According to patent publication US20150190416A1, “FILAGGRIN PRODUCTION PROMOTER, THERAPEUTIC AGENT FOR DISEASES ASSOCIATED WITH REDUCTION IN PRODUCTION OF FILAGGRIN, AND METHOD FOR SCREENING FOR SAID THERAPEUTIC AGENT” (KYOTO UNIVERSITY, priority 2012, published 2015):
# How the values were obtained:
# FLG mRNA = FLG mRNA expression-increasing effect in NHEK cells, real-time PCR (Example 2); format: cell-based, human; conditions: 10 nM, with or without calcium priming
# Method: In this example, the FLG mRNA expression-increasing effect of Compound 1 or Compound 2 was confirmed by using NHEK cells.
# 1) 5×10^4 cells/well of NHEK cells (Invitrogen) were plated on a 24-well plate, and then 500 μl of a culture medium containing a medium for proliferating normal human epidermal keratinocytes (HuMedia-KG2, KURABO INDUSTRIES LTD.) supplemented with hEGF (0.1 ng/ml), insulin (10 μg/ml), hydrocortisone (0.5 μg/ml), gentamycin (50 μg/ml), amphotericin B (50 ng/ml), and bovine brain pituitary extract (BPE) (0.4%, v/v) were added to the plate, and the cells were cultured under the conditions of 37° C. and 5% CO2. Next, after culture under the conditions of the following step 2) or 3), a sample was prepared. […]
# 4) An extraction reagent (TRIzol™, Invitrogen) was used, and according to the manufacturer's protocol, total RNA was extracted from each of cells treated with the medicament (Compound 1 or Compound 2) in the steps 2) and 3). […] Next, real-time PCR was conducted by using the following primers and SYBR™ Premix Ex Taq (Takara) with a CFX96 real-time PCR instrument (Bio-Rad Laboratories, Inc.) according to the manufacturer's protocol, and the amount of FLG mRNA was measured. […]
# GPR142 = test: Blocking effect by GPR142 RNAi in NHEK cells (Examples 5 and 6); format: cell-based, human; conditions: 1 day; for induction of FLG mRNA expression: dependence on GPR142: GPR142 siRNA, compound 10 nM
# Method: In this example, it was confirmed that the expression-inducing effects of Compound 1 on GPR142 mRNA and FLG mRNA in NHEK cells were blocked by GPR142 RNAi.
# 1) 5×10^4 cells/well of NHEK cells (Invitrogen) were plated on a 24-well plate. Then, 500 μl of a culture medium containing a medium for proliferating normal human epidermal keratinocytes (HuMedia-KG2, KURABO INDUSTRIES LTD.) supplemented with hEGF (0.1 ng/ml), insulin (10 μg/ml), hydrocortisone (0.5 μg/ml), gentamycin (50 μg/ml), amphotericin B (50 ng/ml), and bovine brain pituitary extract (BPE) (0.4%, v/v) were added to the plate, and the cells were cultured under the conditions of 37° C. and 5% CO2.
# 2) After culture under the conditions of the step 1) for 1 day, the medium was exchanged for the culture medium of the step 1) to which CaCl2 (1.2 mM in terms of Ca) was further added as Ca, and culture was conducted under the conditions of 37° C. and 5% CO2. After culture for 1 day, the medium was exchanged for the same culture medium containing Ca, and culture was further conducted for 1 day.
# 3) The NHEK cells of the step 2) were transfected with 50 nM of siRNA per well of the 24-well plate by using a transfection reagent, Lipofectamine RNA Max (Invitrogen) according to the manufacturer's protocol.
# The sequences of the used three kinds of GPR142 siRNAs and the sequences of the used control siRNAs (all the siRNAs are manufactured by Invitrogen) are described below.
# 4) After culture for 1 day after the transfection with siRNA in the step 3), the medium was exchanged for the culture medium of the step 1) to which a DMSO solution of Compound 1 was added at 10 nM per well, and culture was further conducted for 1 day. As a control, a solvent only (vehicle) was added.
# 5) An extraction reagent (TRIzol™, Invitrogen) was used, and according to the manufacturer's protocol, total RNA was extracted from each of cells treated with the medicament. A reverse transcriptase reagent (Prime Script™, Takara) was used, and according to the manufacturer's protocol, cDNA was prepared from the total RNA. Next, real-time PCR was conducted by using the following primers and SYBR™ Premix Ex Taq (Takara) with a CFX96 real-time PCR instrument according to the manufacturer's protocol, and the amounts of GPR142 mRNA and FLG mRNA expression were measured. The result of measurement is shown as a GAPDH ratio.
# In this example, it was confirmed that the expression-inducing effects of Compound 2 or 3 on GPR142 mRNA and FLG mRNA in NHEK cells were blocked by GPR142 RNAi.
# NHEK cells were transfected in the same manner as in Example 5 except that, in the steps 1) to 3) of Example 5, two kinds of GPR142 siRNAs and two kinds of control siRNAs, i.e., GPR142-1 (#HSS139493) and GPR142-3 (#HSS179846) and Control-1 (LOW GC, #129350-200), and Control-3 (HIGH GC, #129350-400) were used as GPR142 siRNAs and control siRNAs, respectively. After culture for 1 day after the transfection was conducted in the same manner as in the step 4) of Example 5, the medium was exchanged for the culture medium to which each of a DMSO solution of Compound 1, a DMSO solution of Compound 2, or a methanol solution of Compound 3 was added at 10 nM per well, and culture was further conducted for 1 day. As a control, a solvent only (vehicle) was added. Regarding each of cells treated with the medicament, real-time PCR was conducted to measure the amounts of GPR142 mRNA and FLG mRNA in the same manner as in the step 5) of Example 5. The results of the measurement are shown as a GAPDH ratio.
# [1] = calcium priming, siRNA 50 nM, Compound 1 10 nM
Compound,FLG mRNA expression (GAPDH ratio) (FLG mRNA),induction of FLG mRNA expression: dependence on GPR142 (GPR142),FLG mRNA expression in the presence of GPR142 siRNA (GPR142; [1]),GPR142 mRNA expression in the presence of GPR142 siRNA (GPR142; [1])
"CCc1ccc(OCc2ccccc2C(=O)Nc2ccc3nc(C)cc(N)c3c2)cc1.Cl [Compound 1, N-(4-Amino-2-methyl-6-quinolyl)-2-[(4-ethylphenoxy)methyl]benzamide hydrochloride]",increases the FLG mRNA expression,mediated by GPR142,suppressed by GPR142 siRNA,suppressed by GPR142 siRNA
"CC[C@H](C)[C@H]1O[C@]2(CC[C@@H]1C)C[C@@H]1C[C@@H](C/C=C(\C)[C@@H](O[C@H]3C[C@H](OC)[C@@H](O[C@H]4C[C@H](OC)[C@@H](O)[C@H](C)O4)[C@H](C)O3)[C@@H](C)/C=C/C=C3\CO[C@@H]4[C@H](O)C(C)=C[C@@H](C(=O)O1)[C@]34O)O2 [Compound 2, Ivermectin, reference compound]",increases the FLG mRNA expression,mediated by GPR142,,
